Assay results taken from paper PMC9596375 (2022).
Values belong to the compound of their own block, whether it stands above or below them.

Columns and labels:
[1] = test system: X2B2-C4 (RNA, aptamer) GGAUAGCCAAGAGCGAUUGAAACUAAGUCUGGCUAUCC; assay: UV-Vis absorbance shift; conditions: 30 mM MgCl2, 140 mM KCl, 10 mM NaCl; 50 mM Tris pH 7.0; 40 µM RNA, 40 µM FAD; ∆λmax 7
[2] = test system: X2B2-C14G (RNA, aptamer) GGAUACACAAGAGGGAUUGAAACUAAGUCUGUGUAUCC; assay: UV-Vis absorbance shift; conditions: 30 mM MgCl2, 140 mM KCl, 10 mM NaCl; 50 mM Tris pH 7.0; 40 µM RNA, 40 µM FAD; ∆λmax 2
[3] = test system: X2B2-C1 (RNA, aptamer) GGAUACACAAGAGCGAACGAAACUAGUUCUGUGUAUCC; assay: UV-Vis absorbance shift; conditions: 30 mM MgCl2, 140 mM KCl, 10 mM NaCl; 50 mM Tris pH 7.0; 40 µM RNA, 40 µM FAD; ∆λmax 0
[4] = test system: X2B2-A10U (RNA, aptamer) GGAUACACAUGAGCGAUUGAAACUAAGUCUGUGUAUCC; assay: UV-Vis absorbance shift; conditions: 30 mM MgCl2, 140 mM KCl, 10 mM NaCl; 50 mM Tris pH 7.0; 40 µM RNA, 40 µM FAD; ∆λmax 5
[5] = test system: X2B2-C14U-U24A (RNA, aptamer) GGAUACACAAGAGUGAUUGAAACAAAGUCUGUGUAUCC; assay: UV-Vis absorbance shift; conditions: 30 mM MgCl2, 140 mM KCl, 10 mM NaCl; 50 mM Tris pH 7.0; 40 µM RNA, 40 µM FAD; ∆λmax 1
[6] = test system: X2B2-U24A (RNA, aptamer) GGAUACACAAGAGCGAUUGAAACAAAGUCUGUGUAUCC; assay: UV-Vis absorbance shift; conditions: 30 mM MgCl2, 140 mM KCl, 10 mM NaCl; 50 mM Tris pH 7.0; 40 µM RNA, 40 µM FAD; ∆λmax 6
[7] = test system: X2B2-G13U (RNA, aptamer) GGAUACACAAGAUCGAUUGAAACUAAGUCUGUGUAUCC; assay: UV-Vis absorbance shift; conditions: 30 mM MgCl2, 140 mM KCl, 10 mM NaCl; 50 mM Tris pH 7.0; 40 µM RNA, 40 µM FAD; ∆λmax 1
[8] = test system: X2B2-A12U (RNA, aptamer) GGAUACACAAGUGCGAUUGAAACUAAGUCUGUGUAUCC; assay: UV-Vis absorbance shift; conditions: 30 mM MgCl2, 140 mM KCl, 10 mM NaCl; 50 mM Tris pH 7.0; 40 µM RNA, 40 µM FAD; ∆λmax 0
[9] = test system: X2B2-D4 (RNA, aptamer) GGAUAGCCAAGAGCGAUUGAAACUAAGUCUGUGUAUCC; assay: UV-Vis absorbance shift; conditions: 30 mM MgCl2, 140 mM KCl, 10 mM NaCl; 50 mM Tris pH 7.0; 40 µM RNA, 40 µM FAD; ∆λmax 6
[10] = test system: X2B2 (RNA, aptamer) GGAUACACAAGAGCGAUUGAAACUAAGUCUGUGUAUCC; assay: ITC; conditions: 20 mM MgCl2; 10 mM Tris-HCl pH 7.5, 30 °C
[11] = test system: X2B2-D1 (RNA, aptamer) GGAUACACAAGAGCGAACGAAACUAAGUCUGUGUAUCC; assay: UV-Vis absorbance shift; conditions: 30 mM MgCl2, 140 mM KCl, 10 mM NaCl; 50 mM Tris pH 7.0; 40 µM RNA, 40 µM FAD; ∆λmax 1
[12] = test system: X2B2-C23U (RNA, aptamer) GGAUACACAAGAGCGAUUGAAAUUAAGUCUGUGUAUCC; assay: UV-Vis absorbance shift; conditions: 30 mM MgCl2, 140 mM KCl, 10 mM NaCl; 50 mM Tris pH 7.0; 40 µM RNA, 40 µM FAD; ∆λmax 2
[13] = test system: X2B2-BT1 (RNA, aptamer) GGAUACAAACGAGCGAUUGAAACUAAGUCGUUGUAUCC; assay: UV-Vis absorbance shift; conditions: 30 mM MgCl2, 140 mM KCl, 10 mM NaCl; 50 mM Tris pH 7.0; 40 µM RNA, 40 µM FAD; ∆λmax 5
[14] = test system: X2B2-D3 (RNA, aptamer) GGAUACAGUAGAGCGAUUGAAACUAAGUCUGUGUAUCC; assay: UV-Vis absorbance shift; conditions: 30 mM MgCl2, 140 mM KCl, 10 mM NaCl; 50 mM Tris pH 7.0; 40 µM RNA, 40 µM FAD; ∆λmax 5
[15] = test system: X2B2-ΔA9 (RNA, aptamer) GGAUACACAGAGCGAUUGAAACUAAGUCUGUGUAUCC; assay: UV-Vis absorbance shift; conditions: 30 mM MgCl2, 140 mM KCl, 10 mM NaCl; 50 mM Tris pH 7.0; 40 µM RNA, 40 µM FAD; ∆λmax 2
[16] = test system: X2B2-C14A (RNA, aptamer) GGAUACACAAGAGAGAUUGAAACUAAGUCUGUGUAUCC; assay: UV-Vis absorbance shift; conditions: 30 mM MgCl2, 140 mM KCl, 10 mM NaCl; 50 mM Tris pH 7.0; 40 µM RNA, 40 µM FAD; ∆λmax 5
[17] = test system: X2B2-C3 (RNA, aptamer) GGAUACAGUAGAGCGAUUGAAACUAAGUCACUGUAUCC; assay: UV-Vis absorbance shift; conditions: 30 mM MgCl2, 140 mM KCl, 10 mM NaCl; 50 mM Tris pH 7.0; 40 µM RNA, 40 µM FAD; ∆λmax 5
[18] = test system: X2B2-A22U (RNA, aptamer) GGAUACACAAGAGCGAUUGAAUCUAAGUCUGUGUAUCC; assay: UV-Vis absorbance shift; conditions: 30 mM MgCl2, 140 mM KCl, 10 mM NaCl; 50 mM Tris pH 7.0; 40 µM RNA, 40 µM FAD; ∆λmax 2
[19] = test system: X2B2-ΔC14 (RNA, aptamer) GGAUACACAAGAGGAUUGAAACUAAGUCUGUGUAUCC; assay: UV-Vis absorbance shift; conditions: 30 mM MgCl2, 140 mM KCl, 10 mM NaCl; 50 mM Tris pH 7.0; 40 µM RNA, 40 µM FAD; ∆λmax 1
[20] = test system: X2B2-A20U (RNA, aptamer) GGAUACACAAGAGCGAUUGUAACUAAGUCUGUGUAUCC; assay: UV-Vis absorbance shift; conditions: 30 mM MgCl2, 140 mM KCl, 10 mM NaCl; 50 mM Tris pH 7.0; 40 µM RNA, 40 µM FAD; ∆λmax 0
[21] = test system: X2B2-A21U (RNA, aptamer) GGAUACACAAGAGCGAUUGAUACUAAGUCUGUGUAUCC; assay: UV-Vis absorbance shift; conditions: 30 mM MgCl2, 140 mM KCl, 10 mM NaCl; 50 mM Tris pH 7.0; 40 µM RNA, 40 µM FAD; ∆λmax 1
[22] = test system: X2B2-A25U (RNA, aptamer) GGAUACACAAGAGCGAUUGAAACUUAGUCUGUGUAUCC; assay: UV-Vis absorbance shift; conditions: 30 mM MgCl2, 140 mM KCl, 10 mM NaCl; 50 mM Tris pH 7.0; 40 µM RNA, 40 µM FAD; ∆λmax 2
[23] = test system: Neg (RNA, other) GGAACUGCGAUCUAGUGAGACUGACUCGUGAUCGGA; assay: UV-Vis absorbance shift; conditions: 30 mM MgCl2, 140 mM KCl, 10 mM NaCl; 50 mM Tris pH 7.0
[24] = test system: X2B2-C14U (RNA, aptamer) GGAUACACAAGAGUGAUUGAAACUAAGUCUGUGUAUCC; assay: ITC; conditions: 20 mM MgCl2; 10 mM Tris-HCl pH 7.5, 30 °C
[25] = test system: 12.29 (RNA, aptamer) GGGAAAAGCGAAUCAUACACAAGAGCGAUUGAAACUAAGUCUGUGCUAUGUUCGUUAUCGCCGGUGGGGCAUAAGGUAUUUAAUUCCAUA; assay: in-line probing; conditions: 30 mM MgCl2; 25 mM Tris pH 8.0, 37 °C, 18 h; 500 µM FAD
[26] = test system: X2B2-D2 (RNA, aptamer) GGAUACACAAGAGCACUUGAAACUAAGUCUGUGUAUCC; assay: UV-Vis absorbance shift; conditions: 30 mM MgCl2, 140 mM KCl, 10 mM NaCl; 50 mM Tris pH 7.0; 40 µM RNA, 40 µM FAD; ∆λmax 4
[27] = test system: X2B2-C14U-BT1 (RNA, aptamer) GGAUACAAACGAGUGAUUGAAACUAAGUCGUUGUAUCC; assay: UV-Vis absorbance shift; conditions: 30 mM MgCl2, 140 mM KCl, 10 mM NaCl; 50 mM Tris pH 7.0; 40 µM RNA, 40 µM FAD; ∆λmax 9
[28] = test system: X2B2-G19U (RNA, aptamer) GGAUACACAAGAGCGAUUUAAACUAAGUCUGUGUAUCC; assay: UV-Vis absorbance shift; conditions: 30 mM MgCl2, 140 mM KCl, 10 mM NaCl; 50 mM Tris pH 7.0; 40 µM RNA, 40 µM FAD; ∆λmax 2
[29] = test system: X2B2-G11U (RNA, aptamer) GGAUACACAAUAGCGAUUGAAACUAAGUCUGUGUAUCC; assay: UV-Vis absorbance shift; conditions: 30 mM MgCl2, 140 mM KCl, 10 mM NaCl; 50 mM Tris pH 7.0; 40 µM RNA, 40 µM FAD; ∆λmax 0
[30] = test system: 12.8 (RNA, aptamer) GGGAAAAGCGAAUCAUACACAAGAGUGUGACGCACUUUAUGAUCGGAGGCCGUCAUUGUAUGGCGUGGGCAUAAGGUAUUUAAUUCCAUA; assay: in-line probing; conditions: 30 mM MgCl2; 25 mM Tris pH 8.0, 37 °C, 18 h; 500 µM FAD
[31] = test system: X2B2-C14U-ΔA9 (RNA, aptamer) GGAUACACAGAGUGAUUGAAACUAAGUCUGUGUAUCC; assay: UV-Vis absorbance shift; conditions: 30 mM MgCl2, 140 mM KCl, 10 mM NaCl; 50 mM Tris pH 7.0; 40 µM RNA, 40 µM FAD; ∆λmax 8
[32] = test system: X2B2-C14U-dG13 (RNA, aptamer, 2'-deoxy at G13) GGAUACACAAGAGUGAUUGAAACUAAGUCUGUGUAUCC; assay: UV-Vis absorbance shift; conditions: 30 mM MgCl2, 140 mM KCl, 10 mM NaCl; 50 mM Tris pH 7.0; ∆λmax 10
[33] = test system: X2B2-C14U-dG13-dU18 (RNA, aptamer, 2'-deoxy at G13 and U18) GGAUACACAAGAGUGAUUGAAACUAAGUCUGUGUAUCC; assay: UV-Vis absorbance shift; conditions: 30 mM MgCl2, 140 mM KCl, 10 mM NaCl; 50 mM Tris pH 7.0; ∆λmax 7
[34] = test system: X2B2-C14U-dU18 (RNA, aptamer, 2'-deoxy at U18) GGAUACACAAGAGUGAUUGAAACUAAGUCUGUGUAUCC; assay: UV-Vis absorbance shift; conditions: 30 mM MgCl2, 140 mM KCl, 10 mM NaCl; 50 mM Tris pH 7.0; ∆λmax 7

- binding [1]: yes
- binding [2]: weak
- binding [3]: no
- binding [4]: yes
- binding [5]: no
- binding [6]: yes
- binding [7]: no
- binding [8]: no
- binding [9]: yes
- Kd [10]: 7.244 ± 0.398 µM
- binding [11]: no
- binding [12]: weak
- binding [13]: weak
- binding [14]: yes
- binding [15]: weak
- binding [16]: weak
- binding [17]: yes
- binding [18]: weak
- binding [19]: no
- binding [20]: no
- binding [21]: no
- binding [22]: weak
- binding [23]: no
- Kd [24]: 818 ± 32 nM
- binding [25]: yes
- binding [26]: weak
- binding [27]: yes
- binding [28]: weak
- binding [29]: no
- binding [30]: yes
- binding [31]: yes
Compound: Cc1cc2nc3c(=O)[nH]c(=O)nc-3n(C[C@H](O)[C@H](O)[C@H](O)COP(=O)(O)OP(=O)(O)OC[C@H]3O[C@@H](n4cnc5c(N)ncnc54)[C@H](O)[C@@H]3O)c2cc1C

- binding [32]: yes
- Kd [10]: 1.414 ± 0.097 µM
- binding [33]: yes
- binding [34]: yes
- Kd [24]: 243 ± 28 nM
Compound: Cc1cc2nc3c(=O)[nH]c(=O)nc-3n(C[C@H](O)[C@H](O)[C@H](O)COP(=O)(O)O)c2cc1C

- Kd [10]: 5.333 ± 0.722 µM
- Kd [24]: 885 ± 85 nM
Compound: Cc1cc2nc3c(=O)[nH]c(=O)nc-3n(C[C@H](O)[C@H](O)[C@H](O)CO)c2cc1C
